Experimental data taken from patent publication US6465521B1, “Composition for desorbing bacteria” (Ramot University Authority for Applied Research & …, priority 1988, dated 2002).

Legend:
Format in all cases: cell-based
[1] = test system: Candida albicans; test: Adhesion of the yeast Candida albicans to hexadecane; details: for adhesion of the yeast Candida albicans: 20 without; for adhesion of C. albicans to hexadecane: 0.16% cetyl pyridinium chloride
[2] = test system: Escherichia coli CSH 57; test: Adhesion of Escherichia coli CSH 57 to hexadecane; details: 0 without
[3] = test system: Acinetobacter calcoaceticus RAG-1 (ATCC 31012); test: Adhesion of RAG-1 to various oils (percent drop in turbidity after vortexing with oil); details: for Percent adhesion to: mineral oil 50 / Percent adhesion to: n-nexadecane / Percent adhesion to: soybean oil: 0.16 ml of 0.5% detergent added, vortexed 2 min
Experimental: In one experiment Acinetobacter calcoaceticus RAG-1 (ATCC 31012) cells were grown overnight with vigorous shaking at 30 C in brain heart infusion broth. The cells were harvested by centrifugation and washed twice in 0.2% saline. The cells were then suspended in 0.2% saline to a corrected optical density of about 15 at 400 nm (1 cm light path). To 1.2 ml of suspended bacteria in 4 ml square disposable polystyrene cuvettes were added the following: 0.16 ml of 0.5% detergent in water (or water for control) and 0.24 ml water. Following brief mixing, 0.2 ml of oil was added (vs. controls with no oil added) and the mixtures vortexed vigorously for 2 min. Following about thirty minutes, the corrected turbidity of the lower aqueous phase was measured at 400 nm. Adhesion is calculated as the percent drop in turbidity following the mixing procedure.
The ability of another cationic surface-active agent, chlorhexidine digluconate, to enhance microbial adhesions to oil droplets is shown in the following experiment. Actnetobacter calcoaceticus RAG-1 (ATCC 31012) cells were grown overnight with vigorous shaking at 30 C in brain heart infusion broth. The cells were harvested, washed by centrifugation, and suspended in 0.2% saline to a corrected optidal density of ca. 18 at […] (1 cm light path). To 1.2 ml of suspended bacteria in 4 ml square disposable polystyrene cuvettes were added the following: 0.16 ml of 0.5% chlorhexidine digluconate in water (or water for control) and 0.24 ml water. To each cuvette 0.2 ml of oil was added (vs. control with no oil added) and the mixtures vortexed vigorously for 2 min. After about thirty minutes, the turbidity of the lower aqueous phase was measured at 400 nm and corrected for non-linearity by a standard curve. Adhesion is calculated as the percent drop in corrected turbidity following the mixing procedure.

[4] = test system: Acinetobacter calcoaceticus MR-481; test: Adhesion of Acinetobacter calcoaceticus MR-481 to oil droplets; details: 0 without
[5] = 0.16 ml of 0.5% chlorhexidine digluconate added, 0.2 ml oil

For `N=C(NCCCCCCNC(=N)NC(=N)Nc1ccc(Cl)cc1)NC(=N)Nc1ccc(Cl)cc1.O=C(O)[C@H](O)[C@@H](O)[C@H](O)[C@H](O)CO.O=C(O)[C@H](O)[C@@H](O)[C@H](O)[C@H](O)CO` [Chlorhexidine digluconate, chlorhexidine digluconate], the “adhesion of the yeast Candida albicans” value ([1]; 0.16% chlorhexidine digluconate) was 100%, the “adhesion of Escherichia coli CSH 57 to hexadecane” value ([2]; 0.1% chlorhexidine digluconate present) was 98% and the “Percent adhesion to Commerical soybean oil” value [3, 5] was 89%. The “Percent adhesion to Sigma soybean oil” value [3, 5] was 90%, the “Percent adhesion to isohexadecane” value [3, 5] was 94% and the “Percent adhesion to n-hexadecane” value [3, 5] was 95%.
For chitosan, the “adhesion of the yeast Candida albicans” value ([1]; 0.025% chitosan) was 95%, the “Adhesion of Acinetobacter calcoaceticus MR-481” value ([4]; 0.019% of chitosan) was 99% and the “adhesion of Escherichia coli CSH 57 to hexadecane” value ([2]; 0.015% chitosan present) was 97%.
In the case of `CCCCCCCCCCCCCCCC[n+]1ccccc1` [Cetylpyridinium chloride, cetylpyridinium chloride], the “adhesion of C. albicans to hexadecane” value ([1]; 0.8% NaCl present) is reported as 18%, the “adhesion of C. albicans to hexadecane” value ([1]; no NaCl) is reported as 100% and the “Adhesion of Acinetobacter calcoaceticus MR-481” value ([4]; 0.18% of cetylpyridinium chloride) is reported as 97%. For the same molecule, the “adhesion of Escherichia coli CSH 57 to hexadecane” value ([2]; 0.08% cetylpyridinium chloride present) was 98%, the “Percent adhesion to: mineral oil 50” value ([3]; 0.2 ml oil) was 80% and the “Percent adhesion to: n-nexadecane” value ([3]; 0.2 ml oil) was 83%. For the same molecule, the “Percent adhesion to: soybean oil” value ([3]; 0.2 ml oil) was 47%.
In the case of `CCCCCCCCCCCCOS(=O)(=O)[O-].[Na+]` [Sodium dodecyl sulphate], the “Percent adhesion to: mineral oil 50” value ([3]; 0.2 ml oil) is reported as 0%, the “Percent adhesion to: n-nexadecane” value ([3]; 0.2 ml oil) is reported as 0% and the “Percent adhesion to: soybean oil” value ([3]; 0.2 ml oil) is reported as 0%. For the same molecule, the “adhesion to all three test oils” value ([3]; added at the same concentration as the cetylpyridinium chloride (w/v)) was 0%.
